# Measurements as given in patent US20210137941A1 (ZARODEX THERAPEUTICS LIMITED, priority 2018, published 2021).
# “And” between values parts separate entries of the source, which are not always exact repeats. Identical values can stand only once. “Also recorded” adds a separate entry of the source. Like-named read-outs stand apart in the source and are kept apart here.
# Assays:
# [1] = treatment-resistant schizophrenia; cited from earlier work
# [2] = test system: B cell subsets (class switched memory B cells, plasmablasts); conditions: for CSMB after stopping clozapine: one patient, 24 months after clozapine cessation (from 1.58%)
# [3] = in vivo; cited from earlier work
# [4] = test system: IgG to Haemophilus influenza B, Pneumococcus and Tetanus; conditions: human, in vivo
# [5] = test system: circulating immunoglobulins; test: Wild type mouse study: circulating immunoglobulin profile by ELISA; format: in vivo, C57BL/6 mice; conditions: FIG. 24
# [6] = test system: circulating total IgG, IgA, IgM and pneumococcus IgG; test: Second observational study (interim analysis): circulating immunoglobulins; format: in vivo, human; conditions: interim data
# [7] = test system: bone marrow B cell subsets; test: Wild type mouse study: bone marrow B cell immunophenotyping by flow cytometry; format: in vivo, C57BL/6 mice
# [8] = test system: Immunoglobulin levels (IgG, IgA and IgM); test: First observational study: serum immunoglobulin levels by nephelometry, clozapine vs clozapine-naive patients; format: in vivo, human
# [9] = sub-group A: all diagnoses, all smoking, possible secondary causes not excluded, n=123
# [10] = sub-group A: all diagnoses, all smoking, possible secondary causes not excluded, n=123, listed as clozapine
# [11] = sub-group B: all diagnoses, all smoking, possible secondary causes excluded, n=94
smiles,measurement,setting,value
"CN1CCN(C2=Nc3cc(Cl)ccc3Nc3ccccc32)CC1 [Clozapine, clozapine]",previously treatment refractive patients in whom effective,[1],approximately 60%
same,marginal zone B cell numbers vs healthy control,[2]; FIG. 3B,no significant difference
same,total B cell numbers vs CVID and healthy controls,[2]; FIG. 3B,similar
same,"CSMB (6.5-29.1%), individual referred patients","[2]; class switched memory B cells as % of CD19+ cells, one line per patient, listed as clozapine",1.58%
same,overall lymphopenia / B cell lymphopenia,"[2]; human, in vivo",no severe overall lymphopenia or B cell lymphopenia
same,CSMB after stopping clozapine,[2],CSMB rose to 2.77%
same,CSMB after stopping clozapine,[2]; listed as clozapine,2.77%
same,"mean percentage of CSMB, referred patients","[2]; reference range 6.5-29.1%, p<0.0001 vs healthy controls, FIG. 3A",1.87%
same,LD50,[3],200 mg/kg
same,individuals failing to develop a pneumococcal IgG response above 50 mg/L,[4],73%
same,individuals failing to exceed 0.1 IU/mL post-vaccination Tetanus-IgG level,[4],1/12
same,individuals failing to mount a Haemophilus-IgG response of at least 1 mcg/ml,[4],42%
same,patients with IgG to Haemophilus influenza B (HiB) <1 mcg/ml,[4],75%
same,patients with Pneumococcus-IgG <50 mg/L,[4],94%
same,patients with Tetanus-IgG <0.1 IU/mL,[4],38%
same,patients with impaired responses to vaccination,[4],10/11
same,"vaccine response, individual referred patients",[4],Failure to responds to; also recorded: Non-durable
same,other circulating immunoglobulin isotype classes,[5],No other isotype classes were affected
same,circulating IgA levels compared to control,"[5]; clozapine 5 and 10 mg/kg, haloperidol 1 mg/kg, IP 21 days",reduction
same,"levels of circulating total IgG, IgA and IgM vs clozapine naive control",[6]; FIG. 6A-C,Significantly reduced levels
same,IgG antibodies against pneumococcus vs control,[6]; FIG. 7,trend to lower
same,pro-B cell fraction in bone marrow,"[7]; 10 mg/kg IP, 21 days, FIG. 18",without any change
same,proportion of pre-pro B cells in bone marrow,"[7]; 10 mg/kg IP, 21 days, FIG. 18",significant increase
same,reduction in the percentage of long-lived plasma cells in the bone marrow compared to control,"[7]; 5 and 10 mg/kg IP, 21 days, significant, FIG. 20",~30%
same,percentage of immature B cells in bone marrow,"[7]; IP 21 days, FIG. 19",reduction
same,overall B cells in the bone marrow,"[7]; any dose (2.5, 5, 10 mg/kg IP, 21 days), FIG. 18",No overall reduction
same,pre-B cells in bone marrow,"[7]; dose-dependent, significant vs control from 2.5 mg/kg, IP 21 days, FIG. 19",reduction
same,percentage of proliferating pre-B cells in bone marrow,"[7]; reaching significance for the 5 mg/kg dose, FIG. 19",diminished
same,% of patients with Serum IgM <0.3 g/L,"[8]; human, in vivo",12.3%
same,"concentrations/distribution of IgG, IgA and IgM vs clozapine-naive control group","[8]; human, in vivo",significantly reduced concentrations; also recorded: leftward shift
same,association of longer duration of therapy with serum IgG,"[8]; p 0.014, not observed with alternative antipsychotic drugs, FIG. 2",lower serum IgG levels
same,% of patients with Serum IgA <0.5 g/L (Reference range 0.8-4.0 g/L),[8]; [9],1.6%
same,% of patients with Serum IgA <0.6 g/L,[8]; [9],2.4%
same,% of patients with Serum IgA <0.7 g/L,[8]; [9],6.5%
same,% of patients with Serum IgA <0.8 g/L (below reference range),[8]; [9],13.0%
same,% of patients with Serum IgG <3 g/L (Reference range 6-16 g/L),[8]; [9],0.8%
same,% of patients with Serum IgG <4 g/L,[8]; [9],1.6%
same,% of patients with Serum IgG <5 g/L,[8]; [9],3.3%
same,% of patients with Serum IgG <6 g/L (below reference range),[8]; [9],9.8%
same,% of patients with Serum IgM <0.2 g/L (Reference range 0.5-1.9 g/L),[8]; [9],8.1%
same,% of patients with Serum IgM <0.3 g/L,[8]; [9],16.3%
same,% of patients with Serum IgM <0.4 g/L,[8]; [9],29.3%
same,% of patients with Serum IgM <0.5 g/L (below reference range),[8]; [9],38.2%
same,% of patients with Serum IgA <0.8 g/L (below reference range),[8]; [10],13.0% and 13.1%
same,% of patients with Serum IgG <6 g/L (below reference range),[8]; [10],9.8%
same,% of patients with Serum IgM <0.5 g/L (below reference range),[8]; [10],38.2%
same,% of patients with Serum IgA <0.5 g/L (Reference range 0.8-4.0 g/L),[8]; [11],2.1%
same,% of patients with Serum IgA <0.6 g/L,[8]; [11],2.1%
same,% of patients with Serum IgA <0.7 g/L,[8]; [11],6.4%
same,% of patients with Serum IgA <0.8 g/L (below reference range),[8]; [11],13.8%
same,% of patients with Serum IgG <3 g/L (Reference range 6-16 g/L),[8]; [11],1.1%
same,% of patients with Serum IgG <4 g/L,[8]; [11],1.1%
same,% of patients with Serum IgG <5 g/L,[8]; [11],2.1%
same,% of patients with Serum IgG <6 g/L (below reference range),[8]; [11],8.4%
same,% of patients with Serum IgM <0.2 g/L (Reference range 0.5-1.9 g/L),[8]; [11],5.3%
same,% of patients with Serum IgM <0.3 g/L,[8]; [11],12.8%
same,% of patients with Serum IgM <0.4 g/L,[8]; [11],26.6%
same,% of patients with Serum IgM <0.5 g/L (below reference range),[8]; [11],34.0%
